Biological target: T1, Lysosomal alpha-mannosidase (Homo sapiens) (UniProt O00754)
T1 sequence (whole entry): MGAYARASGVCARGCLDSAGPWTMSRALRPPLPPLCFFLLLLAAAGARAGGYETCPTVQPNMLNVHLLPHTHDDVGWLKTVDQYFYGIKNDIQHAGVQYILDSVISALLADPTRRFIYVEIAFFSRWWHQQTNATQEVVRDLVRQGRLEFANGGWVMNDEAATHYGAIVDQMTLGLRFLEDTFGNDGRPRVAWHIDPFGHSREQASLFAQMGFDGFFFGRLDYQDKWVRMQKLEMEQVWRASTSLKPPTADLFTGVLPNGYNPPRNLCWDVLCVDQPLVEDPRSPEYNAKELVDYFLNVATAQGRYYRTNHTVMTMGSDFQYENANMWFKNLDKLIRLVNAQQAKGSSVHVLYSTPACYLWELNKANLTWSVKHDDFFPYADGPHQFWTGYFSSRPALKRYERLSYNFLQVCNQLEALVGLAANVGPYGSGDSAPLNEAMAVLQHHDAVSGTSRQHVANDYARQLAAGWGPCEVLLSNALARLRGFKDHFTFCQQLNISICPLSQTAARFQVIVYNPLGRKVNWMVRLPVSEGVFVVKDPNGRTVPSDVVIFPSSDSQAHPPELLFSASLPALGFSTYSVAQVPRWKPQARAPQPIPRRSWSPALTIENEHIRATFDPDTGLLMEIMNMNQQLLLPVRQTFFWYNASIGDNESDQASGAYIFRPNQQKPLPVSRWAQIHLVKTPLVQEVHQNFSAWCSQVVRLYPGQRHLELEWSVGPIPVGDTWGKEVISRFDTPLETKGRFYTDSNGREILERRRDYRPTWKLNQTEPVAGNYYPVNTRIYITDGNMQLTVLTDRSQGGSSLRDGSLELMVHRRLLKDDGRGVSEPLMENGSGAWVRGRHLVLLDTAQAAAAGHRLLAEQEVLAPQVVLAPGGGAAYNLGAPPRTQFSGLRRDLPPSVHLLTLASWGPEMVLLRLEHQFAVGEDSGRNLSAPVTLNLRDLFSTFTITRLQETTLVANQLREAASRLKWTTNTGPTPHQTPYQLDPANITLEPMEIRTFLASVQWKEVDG
Assay: Inhibition of alpha-Mannosidase
Conditions: concentration not given here

SMILES: O=C(CCCO)NCC1OC(CO)C(O)C(O)C1O (stereo unspecified)
- inhibition: < 1%

Source: ChEMBL document CHEMBL1142021, “Aglycon specificity profiling of alpha-glucosidases using synthetic probes” (Bioorg Med Chem Lett, 2005)
